Consider 11 compounds from US10428066B2, “Imidazo[4,5-C]pyridine and pyrrolo[2,3-C]pyridine derivatives as SSAO inhibitors” (PROXIMAGEN, LLC, priority 2013, dated 2019).

Series [1] deals with human ether a go-go related gene (hERG) K+ channel (Homo sapiens (Human), UniProt Q12809). Kind of series: hERG assay, IonWorks patch clamp electrophysiology. It is filed as cell-based. To be noted: Chinese Hamster Lung cell line stably expressing hERG, maximum assay concentration 11 uM. On the procedure: Compounds of the invention were tested for inhibition of the human ether a go-go related gene (hERG) K^+ channel using IonWorks patch clamp electrophysiology. 8 Point concentration-response curves were generated on two occasions using 3-fold serial dilutions from the maximum assay concentration (11 uM). Electrophysiological recordings were made from a Chinese Hamster Lung cell line stably expressing the full length hERG channel. Single cell ion currents were measured in the perforated patch clamp configuration (100 ug/mL amphoterocin) at room temperature using an IonWorks Quattro instrument. The internal solution contained 140 mM KCl, 1 mM MgCl2, 1 mM EGTA and 20 mM HEPES and was buffered to pH 7.3. The external solution contained 138 mM NaCl, 2.7 mM KCl, 0.9 mM CaCl2, 0.5 mM MgCl2, 8 mM Na2HPO4 and 1.5 mM KH2PO4, and was buffered to pH 7.3. […] This sequence was repeated 5 times at a frequency of 0.25 Hz. Currents were measured from the tail step at the 5th pulse, and referenced to the holding current. Compounds were incubated for 6-7 min prior to a second measurement of the hERG signal using an identical pulse train. A minimum of 17 cells were required for each plC50 curve fit. A control compound (quinidine) was used (see Table 20 below).

Series [2] deals with purified recombinantly expressed human SSAO (Homo sapiens (Human), UniProt Q16853). Nature of the series: SSAO enzyme inhibition assay (HRP-coupled hydrogen peroxide detection or 14C-benzaldehyde detection, benzylamine substrate). The format is biochemical. To be noted: human recombinant SSAO, RT. The gist of the method: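 Two read-outs at room temperature, each after ~15 min enzyme–inhibitor pre-incubation: 14C-benzaldehyde from 40 uM labelled benzylamine with 10 ug/ml enzyme, 1 h, PBS; or HRP-coupled H2O2 detection using 100 uM benzylamine, 1 ug/ml enzyme, pH 7.4 phosphate, read kinetically 1-2 h. Four-parameter logistic IC50s.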
Chain of purified recombinantly expressed human SSAO (Q16853 29-763): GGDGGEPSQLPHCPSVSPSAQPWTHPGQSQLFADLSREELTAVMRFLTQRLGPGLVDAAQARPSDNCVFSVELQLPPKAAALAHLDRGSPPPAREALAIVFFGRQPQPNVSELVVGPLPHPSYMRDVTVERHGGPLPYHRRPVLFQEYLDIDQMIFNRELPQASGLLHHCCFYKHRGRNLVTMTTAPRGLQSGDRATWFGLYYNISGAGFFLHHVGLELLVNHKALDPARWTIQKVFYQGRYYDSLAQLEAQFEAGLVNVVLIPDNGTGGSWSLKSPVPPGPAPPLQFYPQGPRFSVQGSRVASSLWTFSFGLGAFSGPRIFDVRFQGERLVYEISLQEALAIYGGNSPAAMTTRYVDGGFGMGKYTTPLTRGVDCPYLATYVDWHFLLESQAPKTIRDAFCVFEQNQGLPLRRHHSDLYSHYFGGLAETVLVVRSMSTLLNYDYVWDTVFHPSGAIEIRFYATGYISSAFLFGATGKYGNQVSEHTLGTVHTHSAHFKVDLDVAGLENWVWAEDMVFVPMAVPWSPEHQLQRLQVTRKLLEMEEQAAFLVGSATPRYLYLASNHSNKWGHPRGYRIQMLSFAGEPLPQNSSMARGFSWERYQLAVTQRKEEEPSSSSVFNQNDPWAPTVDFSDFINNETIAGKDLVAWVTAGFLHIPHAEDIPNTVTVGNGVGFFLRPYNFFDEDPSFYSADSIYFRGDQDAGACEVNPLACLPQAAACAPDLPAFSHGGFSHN

Chain of human ether a go-go related gene (hERG) K+ channel (Q12809 whole entry): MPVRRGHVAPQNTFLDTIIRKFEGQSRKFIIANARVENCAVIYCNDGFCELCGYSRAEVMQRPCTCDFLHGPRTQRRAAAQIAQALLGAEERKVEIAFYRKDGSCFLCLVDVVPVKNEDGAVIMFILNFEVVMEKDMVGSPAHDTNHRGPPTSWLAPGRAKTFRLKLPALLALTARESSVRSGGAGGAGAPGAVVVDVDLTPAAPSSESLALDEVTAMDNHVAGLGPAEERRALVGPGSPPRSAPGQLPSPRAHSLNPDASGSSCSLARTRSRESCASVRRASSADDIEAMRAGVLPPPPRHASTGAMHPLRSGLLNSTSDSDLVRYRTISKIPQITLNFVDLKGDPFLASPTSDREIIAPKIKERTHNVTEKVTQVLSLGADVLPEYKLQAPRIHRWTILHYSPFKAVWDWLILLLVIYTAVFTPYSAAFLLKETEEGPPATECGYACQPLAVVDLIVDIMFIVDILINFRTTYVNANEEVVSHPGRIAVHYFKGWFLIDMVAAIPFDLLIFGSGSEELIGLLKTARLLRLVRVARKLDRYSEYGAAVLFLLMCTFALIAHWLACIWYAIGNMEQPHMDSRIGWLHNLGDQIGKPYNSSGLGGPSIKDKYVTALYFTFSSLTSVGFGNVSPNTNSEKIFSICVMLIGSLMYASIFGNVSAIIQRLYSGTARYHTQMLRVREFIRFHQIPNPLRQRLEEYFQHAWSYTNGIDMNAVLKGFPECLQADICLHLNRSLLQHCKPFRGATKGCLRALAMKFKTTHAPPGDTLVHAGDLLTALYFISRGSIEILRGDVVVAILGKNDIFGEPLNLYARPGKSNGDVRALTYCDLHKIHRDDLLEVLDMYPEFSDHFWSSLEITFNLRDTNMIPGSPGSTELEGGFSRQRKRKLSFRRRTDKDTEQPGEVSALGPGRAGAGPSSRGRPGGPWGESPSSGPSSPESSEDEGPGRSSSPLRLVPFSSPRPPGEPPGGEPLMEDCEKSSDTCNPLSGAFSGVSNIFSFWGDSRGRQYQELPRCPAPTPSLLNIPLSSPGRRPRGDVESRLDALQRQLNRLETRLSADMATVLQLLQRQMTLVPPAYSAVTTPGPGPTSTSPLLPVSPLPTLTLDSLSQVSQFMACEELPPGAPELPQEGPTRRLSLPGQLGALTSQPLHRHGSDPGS

`Clc1ccc(-n2c(-c3ccncc3)cc3ccncc32)cc1` [Example 120, 4-[1-(4-Chlorophenyl)-1H-pyrrolo[2,3-c]pyridin-2-yl]pyridine]: the values for the concentration for half-maximal inhibition (IC50) in series [1] and in series [2] were 1 to 10 µM and 0.2 to 1.2 µM, respectively. On to `Clc1ccc(-n2c(-c3cccnc3)cc3ccncc32)cc1` [Example 122, 3-[1-(4-Chlorophenyl)-1H-pyrrolo[2,3-c]pyridin-2-yl]pyridine], for which the IC50 in series [1] lay within 1 to 10 µM; in series [2] it was 0.05 to 0.2 µM. As for `Clc1ccc(-n2c(-c3cnc(N4CCOCC4)nc3)cc3ccncc32)cc1` [Example 127, 4-{5-[1-(4-Chlorophenyl)-1H-pyrrolo[2,3-c]pyridin-2-yl]pyrimidin-2-yl}morpholine], the IC50 in series [1] was 0.1 to 1 µM.

As for `c1ccc(-n2c(-c3cnc(N4CCOCC4)nc3)cc3ccncc32)cc1` [Example 131, 4-(5-{1-Phenyl-1H-pyrrolo[2,3-c]pyridin-2-yl}pyrimidin-2-yl)morpholine], the values for the IC50 in series [1] and in series [2] were 1 to 10 µM and 0.2 to 1.2 µM, respectively. With `O=c1cc(-c2cc3ccncc3n2-c2ccc(Cl)cc2)ccn1C1CC1` [Example 138, 4-[1-(4-Chlorophenyl)-1H-pyrrolo[2,3-c]pyridin-2-yl]-1-cyclopropyl-1,2-dihydropyridin-2-one], the IC50 in series [1] was 1 to 10 µM. `Clc1ccc(-n2c(-c3cnc(NC4CCOCC4)nc3)cc3ccncc32)cc1` [Example 139, 5-[1-(4-Chlorophenyl)-1H-pyrrolo[2,3-c]pyridin-2-yl]-N-(oxan-4-yl)pyrimidin-2-amine] displayed a concentration for half-maximal inhibition (IC50) in series [1] of 0.1 to 1 µM. In turn, `Clc1ccc(-n2c(-c3ccc(CN4CCOCC4)nc3)cc3ccncc32)cc1` [Example 140, 4-({5-[1-(4-Chlorophenyl)-1H-pyrrolo[2,3-c]pyridin-2-yl]pyridin-2-yl}methyl)morpholine] registered an IC50 in series [1] of 1 to 10 µM. Regarding `O=c1cc(-c2cc3ccncc3n2-c2ccc(Cl)cc2)cc[nH]1` [Example 142, 4-[1-(4-Chlorophenyl)-1H-pyrrolo[2,3-c]pyridin-2-yl]-1,2-dihydropyridin-2-one], the 50% inhibitory concentration (IC50) in series [1] lay in the range of 1 to 10 µM; in series [2] it was 0.05 to 0.2 µM. For `Nc1cc(-c2cc3ccncc3n2-c2ccc(Cl)cc2)ccn1` [Example 147, 4-[1-(4-Chlorophenyl)-1H-pyrrolo[2,3-c]pyridin-2-yl]pyridin-2-amine], the IC50 in series [1] lay in the range of 1 to 10 µM. `Fc1cnccc1-c1cc2ccncc2n1-c1ccc(Cl)cc1` [Example 152, 4-[1-(4-Chlorophenyl)-1H-pyrrolo[2,3-c]pyridin-2-yl]-3-fluoropyridine]: the results for the IC50 in series [1] and in series [2] were 1 to 10 µM and 0.2 to 1.2 µM, respectively. With `Clc1ccc(-n2c(-c3ccncc3Cl)cc3ccncc32)cc1` [Example 153, 3-Chloro-4-[1-(4-chlorophenyl)-1H-pyrrolo[2,3-c]pyridin-2-yl]pyridine], the values for the IC50 in series [1] and in series [2] were 1 to 10 µM and 0.05 to 0.2 µM, respectively.
